Laboratory results reported in the supplement of paper PMC6045584.
± gives the standard deviation of the averaged measurements.

What was measured:
AZD4547 = compound: COc1cc(CCc2cc(NC(=O)c3ccc(N4CC(C)NC(C)C4)cc3)n[nH]2)cc(OC)c1 [AZD4547]; assay: surviving fraction relative to DMSO-only wells; higher = less growth inhibition; conditions: exposure time: 5 days
In short: (§1)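 Viability was determined by CellTiter-Glo luminescence, expressed as surviving fraction normalised to the median of DMSO-only wells. The cells were log-phase tumour cell lines seeded at 250–500 per well in 384-well plates and, after 24 hours, exposed continuously for five days to inhibitors at 0.5, 1, 5, 10, 50, 100, 500 and 1000 nM. Three screens per line were run, keeping only lines with replicate Pearson r >0.7 and median Z' >0.3.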

SUNITINIB = compound: CCN(CC)CCNC(=O)c1c(C)[nH]c(/C=C2\C(=O)Nc3ccc(F)cc32)c1C [SUNITINIB]; assay: as above; conditions: exposure time: 5 days
In short: as §1

| Test System | surviving fraction (AZD4547; 0.5 nM) | surviving fraction (AZD4547; 1 nM) | surviving fraction (AZD4547; 5 nM) | surviving fraction (AZD4547; 10 nM) | surviving fraction (AZD4547; 50 nM) | surviving fraction (AZD4547; 100 nM) | surviving fraction (AZD4547; 500 nM) | surviving fraction (AZD4547; 1000 nM) | surviving fraction (SUNITINIB; 0.5 nM) | surviving fraction (SUNITINIB; 1 nM) | surviving fraction (SUNITINIB; 10 nM) | surviving fraction (SUNITINIB; 100 nM) | surviving fraction (SUNITINIB; 500 nM) | surviving fraction (SUNITINIB; 1000 nM) | surviving fraction (SUNITINIB; 50 nM) | surviving fraction (SUNITINIB; 5 nM) |
| --- | --- | --- | --- | --- | --- | --- | --- | --- | --- | --- | --- | --- | --- | --- | --- | --- |
| HS57T BREAST | 1.02 ± 0.051 | 1.01 ± 0.031 | 0.938 ± 0.04 | 0.829 ± 0.05 | 0.687 ± 0.029 | 0.744 ± 0.043 | 0.679 ± 0.035 | 0.628 ± 0.045 | 0.9 ± 0.077 | 0.867 ± 0.027 | 0.919 ± 0.095 | 0.863 ± 0.011 | 0.572 ± 0.035 | 0.406 ± 0.027 |  |  |
| SAOS2 BONE | 1.046 ± 0.0017 | 1.077 ± 0.0081 | 1.14 ± 0.031 | 1.17 ± 0.085 | 1.16 ± 0.054 | 1.14 ± 0.051 | 0.92467 ± 0.00058 | 0.649 ± 0.023 | 0.792 ± 0.052 | 0.691 ± 0.088 | 0.692 ± 0.073 | 0.863 ± 0.093 | 0.301 ± 0.046 | 0.154 ± 0.0052 | 0.985 ± 0.064 |  |
| SCC36 HEADNECK | 0.993 ± 0.053 | 1.07 ± 0.081 | 1.18 ± 0.17 | 1.09 ± 0.21 | 0.988 ± 0.07 | 1.01 ± 0.039 | 0.856 ± 0.029 | 0.687 ± 0.053 | 0.754 ± 0.059 | 0.783 ± 0.11 | 0.714 ± 0.078 | 0.872 ± 0.074 | 0.441 ± 0.047 | 0.222 ± 0.021 |  | 0.8 ± 0.02 |
| HCC78 LUNG | 1.04 ± 0.2 | 1.14 ± 0.23 | 1.03 ± 0.13 | 0.986 ± 0.11 | 1.08 ± 0.039 | 1.13 ± 0.25 | 1.11 ± 0.25 | 1.1 ± 0.25 | 0.831 ± 0.076 | 0.925 ± 0.054 | 0.46 ± 0.089 | 1.34 ± 0.44 | 1.67 ± 0.23 | 0.633 ± 0.1 | 1.24 ± 0.33 | 0.95 ± 0.099 |
| PCI30 HEADNECK | 0.998 ± 0.026 | 0.966 ± 0.082 | 1.09 ± 0.12 | 1.09 ± 0.094 | 1.16 ± 0.061 | 1.17 ± 0.11 | 1.1 ± 0.012 | 0.999 ± 0.07 | 0.949 ± 0.075 | 0.936 ± 0.033 | 1.13 ± 0.05 | 1.45 ± 0.19 | 1.2 ± 0.033 | 1.03 ± 0.052 | 1.38 ± 0.064 |  |
| JURKAT HAEMATOPOIETIC AND LYMPHOID TISSUE | 1 ± 0.027 | 1.06 ± 0.036 | 1.01 ± 0.026 | 1.04 ± 0.021 | 0.967 ± 0.034 | 0.951 ± 0.033 | 1.04 ± 0.018 | 1 ± 0.035 | 1.03 ± 0.023 | 1 ± 0.015 | 1.01 ± 0.025 | 1.04 ± 0.012 | 0.677 ± 0.012 | 0.0883 ± 0.0087 | 1.01 ± 0.026 | 1.009 ± 0.0064 |
| SG43 HEADNECK | 1.02 ± 0.37 | 0.896 ± 0.17 | 0.714 ± 0.13 | 0.8 ± 0.13 | 0.759 ± 0.099 | 0.696 ± 0.14 | 0.94 ± 0.11 | 0.731 ± 0.074 | 1.27 ± 0.13 | 1.25 ± 0.068 |  | 1.02 ± 0.13 | 0.982 ± 0.09 | 1.52 ± 0.029 | 0.824 ± 0.12 | 0.975 ± 0.18 |
| MG63 BONE | 0.9447 ± 0.006 | 0.992 ± 0.012 | 0.929 ± 0.033 | 0.879 ± 0.048 | 0.662 ± 0.015 | 0.63 ± 0.041 | 0.576 ± 0.02 | 0.572 ± 0.018 | 0.872 ± 0.02 | 0.865 ± 0.034 |  | 0.854 ± 0.016 | 0.721 ± 0.025 | 0.637 ± 0.014 | 0.877 ± 0.028 | 0.876 ± 0.015 |
| MDAMB468 BREAST | 1.04 ± 0.11 | 1.02 ± 0.055 | 1.13 ± 0.057 | 1.14 ± 0.062 | 1.02 ± 0.09 | 1.16 ± 0.096 | 1.06 ± 0.019 | 1.14 ± 0.042 | 0.8 ± 0.046 |  | 0.927 ± 0.072 | 1.04 ± 0.084 |  |  | 1.1 ± 0.091 |  |
| CADOES1 SOFT TISSUE | 0.988 ± 0.032 | 1.02 ± 0.097 | 0.977 ± 0.1 | 0.973 ± 0.046 | 0.912 ± 0.085 | 0.955 ± 0.017 | 1.09 ± 0.11 | 0.992 ± 0.11 |  | 0.976 ± 0.12 | 0.967 ± 0.083 | 1.03 ± 0.032 |  | 0.609 ± 0.11 | 0.885 ± 0.086 | 0.892 ± 0.044 |
| HT1080 SOFT TISSUE | 1.04 ± 0.048 | 1.03 ± 0.025 | 1.01 ± 0.031 | 1 ± 0.0068 | 0.979 ± 0.016 | 0.9753 ± 0.0087 | 0.936 ± 0.03 | 0.817 ± 0.065 | 0.9787 ± 0.0091 |  | 0.97 ± 0.07 | 1.1 ± 0.031 | 0.766 ± 0.032 | 0.559 ± 0.032 |  | 0.997 ± 0.021 |
